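Dose response: 5 concentrations. Exposure: 48 h. Format: 96-well plates. Endpoint: linear interpolation; highest concentration if not reached. The concentration for 50% growth inhibition is given as GI50.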 Calls of active or inactive are those of the source. No stated cut-off is given here; in the data, active = GI50 up to about 1.1 µM and inactive = higher.
What was measured:
Test in all cases: NCI tumour cell line growth inhibition, 48 h
[1] = test system: TK-10
[2] = test system: PC-3
[3] = test system: SN12C
[4] = test system: ACHN
[5] = test system: Hs-578T
[6] = test system: SNB-19
[7] = test system: M14
[8] = test system: LOX IMVI
[9] = test system: CCRF-CEM
[10] = test system: NCI-H226
[11] = test system: SR
[12] = test system: SNB-75
[13] = test system: NCI-H460
[14] = test system: MOLT-4
[15] = test system: MDA-MB-435
[16] = test system: UO-31
[17] = test system: HOP-62
[18] = test system: MDA-MB-231
[19] = test system: UACC-62
[20] = test system: COLO 205
[21] = test system: KM12
[22] = test system: NCI-H23
[23] = test system: 786-0
[24] = test system: U-251
[25] = test system: OVCAR-3
[26] = test system: OVCAR-4
[27] = test system: SW-620
[28] = test system: A549
[29] = test system: HT-29
[30] = test system: OVCAR-5
[31] = test system: K562
[32] = test system: SK-MEL-28
[33] = test system: OVCAR-8
[34] = test system: IGROV-1
[35] = test system: MCF7
[36] = test system: NCI/ADR-RES
[37] = test system: BT-549
[38] = test system: SF-295
[39] = test system: RPMI-8226
[40] = test system: DU-145
[41] = test system: SK-MEL-5
[42] = test system: HOP-92
[43] = test system: A498
[44] = test system: SF-539
[45] = test system: HCC 2998
[46] = test system: CAKI-1
[47] = test system: UACC-257
[48] = test system: SK-MEL-2
[49] = test system: RXF 393
[50] = test system: Malme-3M
[51] = test system: SF-268
[52] = test system: HCT-116
[53] = test system: EKVX
[54] = test system: HCT-15
[55] = test system: HL-60
[56] = test system: T47D
[57] = test system: SK-OV-3
[58] = test system: MDA-N
[59] = test system: NCI-H522

For `CCN(CC)c1ccc(/C=C/C2=NN(c3cccc(S(=O)(=O)O)c3)C3(C2)C(Cl)C(=O)N3c2nc3ccccc3s2)cc1` (centres undefined), the GI50 [1] was 4.95 µM (inactive), the GI50 [2] was 8.28 µM (inactive) and the GI50 [3] was 8.18 µM (inactive). The GI50 [4] was 10.9 µM (inactive), the GI50 [5] was 14.4 µM (inactive) and the GI50 [6] was 12.5 µM (inactive). The GI50 [7] was 12.4 µM (inactive), the GI50 [8] was 2.82 µM (inactive) and the GI50 [9] was 1.83 µM (inactive). For the same compound, the GI50 [10] was 13.1 µM (inactive), the GI50 [11] was 2.47 µM (inactive) and the GI50 [12] was 11.1 µM (inactive). For the same compound, the GI50 [13] was 9.1 µM (inactive), the GI50 [14] was 3.04 µM (inactive) and the GI50 [15] was 5.87 µM (inactive). For the same compound, the GI50 [16] was 1.72 µM (inactive), the GI50 [17] was 7.36 µM (inactive) and the GI50 [18] was 7.8 µM (inactive). For the same compound, the GI50 [19] was 7.91 µM (inactive), the GI50 [20] was 14.1 µM (inactive) and the GI50 [21] was 7.83 µM (inactive). The GI50 [22] was 7.01 µM (inactive), the GI50 [23] was 5.65 µM (inactive) and the GI50 [24] was 3.4 µM (inactive). The GI50 [25] was 4.11 µM (inactive), the GI50 [26] was 4.89 µM (inactive) and the GI50 [27] was 10.2 µM (inactive). For the same compound, the GI50 [28] was 11.2 µM (inactive), the GI50 [29] was 13.8 µM (inactive) and the GI50 [30] was 23.1 µM (inactive). For the same compound, the GI50 [31] was 5.55 µM (inactive), the GI50 [32] was 20.7 µM (inactive) and the GI50 [33] was 8.99 µM (inactive). For the same compound, the GI50 [34] was 4.88 µM (inactive), the GI50 [35] was 6.7 µM (inactive) and the GI50 [36] was 17.9 µM (inactive). The GI50 [37] was 9.25 µM (inactive), the GI50 [38] was 13.3 µM (inactive) and the GI50 [39] was 2.32 µM (inactive). For the same compound, the GI50 [40] was 12.6 µM (inactive), the GI50 [41] was 6.71 µM (inactive) and the GI50 [42] was 6.73 µM (inactive). For the same compound, the GI50 [43] was 12 µM (inactive), the GI50 [44] was 3.32 µM (inactive) and the GI50 [45] was 7.36 µM (inactive). The GI50 [46] was 3.48 µM (inactive), the GI50 [47] was 7.24 µM (inactive) and the GI50 [48] was 12.5 µM (inactive). For the same compound, the GI50 [49] was 3.98 µM (inactive), the GI50 [50] was 11.1 µM (inactive) and the GI50 [51] was 16.8 µM (inactive). The GI50 [52] was 10.5 µM (inactive), the GI50 [53] was 8.79 µM (inactive) and the GI50 [54] was 7.03 µM. For the same compound, the GI50 [55] was 1.89 µM (inactive), the GI50 [56] was 3.06 µM (inactive) and the GI50 [57] was 12.4 µM (inactive). For the same compound, the GI50 [58] was 12.4 µM (inactive) and the GI50 [59] was 1.72 µM (inactive).
In the case of `O=C(/C=C/c1ccccc1)CCC1C(=O)c2ccccc2C1=O`, the GI50 [2] is reported as > 100 µM (inactive), the GI50 [3] is reported as > 100 µM (inactive) and the GI50 [4] is reported as > 100 µM (inactive). For the same compound, the GI50 [5] was > 100 µM (inactive), the GI50 [6] was > 100 µM (inactive) and the GI50 [7] was > 100 µM (inactive). The GI50 [8] was > 100 µM (inactive), the GI50 [9] was > 100 µM (inactive) and the GI50 [10] was > 100 µM (inactive). For the same compound, the GI50 [11] was 66.2 µM (inactive), the GI50 [12] was 19.7 µM (inactive) and the GI50 [13] was > 100 µM (inactive). The GI50 [14] was > 100 µM (inactive), the GI50 [15] was > 100 µM (inactive) and the GI50 [16] was > 100 µM (inactive). For the same compound, the GI50 [18] was > 100 µM (inactive), the GI50 [19] was > 100 µM (inactive) and the GI50 [20] was 64.9 µM (inactive). The GI50 [21] was > 100 µM (inactive), the GI50 [22] was > 100 µM (inactive) and the GI50 [23] was > 100 µM (inactive). For the same compound, the GI50 [24] was > 100 µM (inactive), the GI50 [25] was > 100 µM (inactive) and the GI50 [26] was 31.3 µM (inactive). For the same compound, the GI50 [27] was > 100 µM (inactive), the GI50 [28] was > 100 µM (inactive) and the GI50 [29] was > 100 µM (inactive). The GI50 [30] was > 100 µM (inactive), the GI50 [31] was > 100 µM (inactive) and the GI50 [32] was > 100 µM (inactive). The GI50 [33] was > 100 µM (inactive), the GI50 [34] was > 100 µM (inactive) and the GI50 [35] was > 100 µM (inactive). For the same compound, the GI50 [36] was > 100 µM (inactive), the GI50 [37] was > 100 µM (inactive) and the GI50 [38] was > 100 µM (inactive). The GI50 [39] was 73.6 µM (inactive), the GI50 [40] was > 100 µM (inactive) and the GI50 [41] was > 100 µM (inactive). The GI50 [42] was > 100 µM (inactive), the GI50 [43] was > 100 µM (inactive) and the GI50 [44] was > 100 µM (inactive). The GI50 [45] was > 100 µM (inactive), the GI50 [46] was > 100 µM (inactive) and the GI50 [47] was > 100 µM (inactive). For the same compound, the GI50 [48] was > 100 µM (inactive), the GI50 [49] was > 100 µM (inactive) and the GI50 [50] was > 100 µM (inactive). The GI50 [51] was > 100 µM (inactive), the GI50 [52] was > 100 µM (inactive) and the GI50 [53] was > 100 µM (inactive). The GI50 [54] was 42.6 µM, the GI50 [55] was > 100 µM (inactive) and the GI50 [56] was > 100 µM (inactive). For the same compound, the GI50 [57] was > 100 µM (inactive), the GI50 [58] was 43.8 µM (inactive) and the GI50 [59] was > 100 µM (inactive).
For `CC1(C)C/C=C\CCC(O)C(O)CCC(C)(C)C1=O` (centres undefined), the GI50 [1] was > 100 µM (inactive), the GI50 [2] was > 100 µM (inactive) and the GI50 [3] was > 100 µM (inactive). The GI50 [4] was > 100 µM (inactive), the GI50 [5] was > 100 µM (inactive) and the GI50 [6] was > 100 µM (inactive). For the same compound, the GI50 [8] was > 100 µM (inactive), the GI50 [9] was > 100 µM (inactive) and the GI50 [10] was > 100 µM (inactive). For the same compound, the GI50 [11] was > 100 µM (inactive), the GI50 [12] was > 100 µM (inactive) and the GI50 [13] was > 100 µM (inactive). The GI50 [14] was > 100 µM (inactive), the GI50 [15] was > 100 µM (inactive) and the GI50 [16] was > 100 µM (inactive). For the same compound, the GI50 [17] was > 100 µM (inactive), the GI50 [18] was > 100 µM (inactive) and the GI50 [19] was > 100 µM (inactive). The GI50 [20] was > 100 µM (inactive), the GI50 [21] was > 100 µM (inactive) and the GI50 [22] was > 100 µM (inactive). The GI50 [23] was > 100 µM (inactive), the GI50 [24] was > 100 µM (inactive) and the GI50 [25] was > 100 µM (inactive). For the same compound, the GI50 [26] was > 100 µM (inactive), the GI50 [27] was > 100 µM (inactive) and the GI50 [28] was > 100 µM (inactive). For the same compound, the GI50 [29] was > 100 µM (inactive), the GI50 [30] was > 100 µM (inactive) and the GI50 [31] was > 100 µM (inactive). For the same compound, the GI50 [32] was > 100 µM (inactive), the GI50 [33] was > 100 µM (inactive) and the GI50 [34] was > 100 µM (inactive). The GI50 [35] was > 100 µM (inactive), the GI50 [36] was > 100 µM (inactive) and the GI50 [37] was > 100 µM (inactive). The GI50 [38] was > 100 µM (inactive), the GI50 [39] was > 100 µM (inactive) and the GI50 [40] was > 100 µM (inactive). For the same compound, the GI50 [41] was > 100 µM (inactive), the GI50 [42] was > 100 µM (inactive) and the GI50 [43] was > 100 µM (inactive). For the same compound, the GI50 [44] was > 100 µM (inactive), the GI50 [45] was 17.1 µM (inactive) and the GI50 [46] was > 100 µM (inactive). The GI50 [47] was > 100 µM (inactive), the GI50 [48] was > 100 µM (inactive) and the GI50 [49] was > 100 µM (inactive). For the same compound, the GI50 [50] was > 100 µM (inactive), the GI50 [51] was > 100 µM (inactive) and the GI50 [52] was > 100 µM (inactive). For the same compound, the GI50 [53] was > 100 µM (inactive), the GI50 [54] was over 100 µM and the GI50 [55] was > 100 µM (inactive). For the same compound, the GI50 [56] was > 100 µM (inactive), the GI50 [57] was > 100 µM (inactive) and the GI50 [58] was > 100 µM (inactive). The GI50 [59] was 62.2 µM (inactive).

From ChEMBL document CHEMBL1201862, “PubChem BioAssay data set” (2004)
